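Compound exposure: 48 hours, 5 concentrations, 96-well plates. The concentration for 50% growth inhibition is given as GI50. At the TGI there is no net growth.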
Legend:
Experiment in all cases: growth of human tumour cells (NCI), 48 h
OVCAR-5 ovarian = test system: OVCAR-5 ovarian
K-562 leukemia = test system: K-562 leukemia
MDA-MB-468 breast = test system: MDA-MB-468 breast
786-0 renal = test system: 786-0 renal
HCT-116 colon = test system: HCT-116 colon
UO-31 renal = test system: UO-31 renal
SK-MEL-28 melanoma = test system: SK-MEL-28 melanoma
MDA-MB-435 = test system: MDA-MB-435
NCI-H460 lung = test system: NCI-H460 lung
NCI/ADR-RES ovarian = test system: NCI/ADR-RES ovarian
MCF7 breast = test system: MCF7 breast
MDA-MB-231 breast = test system: MDA-MB-231 breast
A498 renal = test system: A498 renal
MOLT-4 leukemia = test system: MOLT-4 leukemia
SN12C renal = test system: SN12C renal
LOX IMVI melanoma = test system: LOX IMVI melanoma
SNB-75 CNS = test system: SNB-75 CNS
A549 NSCLC = test system: A549 NSCLC
HS 578T breast = test system: HS 578T breast
HOP-62 NSCLC = test system: HOP-62 NSCLC
HCC-2998 colon = test system: HCC-2998 colon
SR leukemia = test system: SR leukemia
KM12 colon = test system: KM12 colon
NCI-H522 lung = test system: NCI-H522 lung
SNB-19 CNS = test system: SNB-19 CNS
BT-549 breast = test system: BT-549 breast
M14 melanoma = test system: M14 melanoma
SF-295 CNS = test system: SF-295 CNS
OVCAR-8 ovarian = test system: OVCAR-8 ovarian
SW-620 colon = test system: SW-620 colon
IGROV1 ovarian = test system: IGROV1 ovarian
TK-10 renal = test system: TK-10 renal
OVCAR-3 ovarian = test system: OVCAR-3 ovarian
COLO 205 colon = test system: COLO 205 colon
HCT-15 colon = test system: HCT-15 colon
SF-268 CNS = test system: SF-268 CNS
DU-145 prostate = test system: DU-145 prostate
OVCAR-4 ovarian = test system: OVCAR-4 ovarian
NCI-H23 lung = test system: NCI-H23 lung
U251 CNS = test system: U251 CNS
NCI-H226 lung = test system: NCI-H226 lung
UACC-62 melanoma = test system: UACC-62 melanoma
SK-MEL-5 melanoma = test system: SK-MEL-5 melanoma
RPMI-8226 leukemia = test system: RPMI-8226 leukemia
SK-MEL-2 melanoma = test system: SK-MEL-2 melanoma
CAKI-1 renal = test system: CAKI-1 renal
PC-3 prostate = test system: PC-3 prostate
CCRF-CEM leukemia = test system: CCRF-CEM leukemia
RXF 393 renal = test system: RXF 393 renal
EKVX NSCLC = test system: EKVX NSCLC
MALME-3M melanoma = test system: MALME-3M melanoma
ACHN renal = test system: ACHN renal
UACC-257 melanoma = test system: UACC-257 melanoma
HOP-92 NSCLC = test system: HOP-92 NSCLC
SK-OV-3 ovarian = test system: SK-OV-3 ovarian
HL-60(TB) leukemia = test system: HL-60(TB) leukemia
T-47D breast = test system: T-47D breast
HT29 colon = test system: HT29 colon
SF-539 CNS = test system: SF-539 CNS

`O=C(CSc1nnc(-c2ccc(-c3nc4ccccc4[nH]3)cc2)o1)Nc1ccc(Cl)cc1` gave a GI50 (OVCAR-5 ovarian) of 14.8 µM, a TGI (OVCAR-5 ovarian) of 36.6 µM and a GI50 (K-562 leukemia) of 4.59 µM. For the same compound, the TGI (K-562 leukemia) was > 100 µM, the GI50 (MDA-MB-468 breast) was 14.7 µM and the TGI (MDA-MB-468 breast) was 29.6 µM. For the same compound, the GI50 (786-0 renal) was 2.04 µM, the TGI (786-0 renal) was 4.45 µM and the GI50 (HCT-116 colon) was 4.14 µM. The TGI (HCT-116 colon) was 17.3 µM, the GI50 (UO-31 renal) was 13 µM and the TGI (UO-31 renal) was 25.7 µM. For the same compound, the GI50 (SK-MEL-28 melanoma) was 4.02 µM, the TGI (SK-MEL-28 melanoma) was 14.9 µM and the GI50 (MDA-MB-435) was 3.3 µM. The TGI (MDA-MB-435) was 13.5 µM, the GI50 (NCI-H460 lung) was 2.93 µM and the TGI (NCI-H460 lung) was 10.9 µM. It also gave a GI50 (NCI/ADR-RES ovarian) of 14.8 µM, a TGI (NCI/ADR-RES ovarian) of 85.7 µM and a GI50 (MCF7 breast) of 3.73 µM. For the same compound, the TGI (MCF7 breast) was 19.3 µM, the GI50 (MDA-MB-231 breast) was 11.4 µM and the TGI (MDA-MB-231 breast) was 24 µM. The GI50 (A498 renal) was 18.6 µM, the TGI (A498 renal) was 42.9 µM and the GI50 (MOLT-4 leukemia) was 4.42 µM. For the same compound, the TGI (MOLT-4 leukemia) was > 100 µM, the GI50 (SN12C renal) was 10.1 µM and the TGI (SN12C renal) was 22.3 µM. It also gave a GI50 (LOX IMVI melanoma) of 1.94 µM, a TGI (LOX IMVI melanoma) of 4.4 µM and a GI50 (SNB-75 CNS) of 2.44 µM. The TGI (SNB-75 CNS) was 14.5 µM, the GI50 (A549 NSCLC) was 3.65 µM and the TGI (A549 NSCLC) was 16.4 µM. The GI50 (HS 578T breast) was 11.9 µM, the TGI (HS 578T breast) was 42.6 µM and the GI50 (HOP-62 NSCLC) was 5.74 µM. For the same compound, the TGI (HOP-62 NSCLC) was 22.1 µM, the GI50 (HCC-2998 colon) was 24.5 µM and the TGI (HCC-2998 colon) was > 100 µM. For the same compound, the GI50 (SR leukemia) was 10.1 µM, the TGI (SR leukemia) was > 100 µM and the GI50 (KM12 colon) was 10.6 µM. For the same compound, the TGI (KM12 colon) was 39.5 µM, the GI50 (NCI-H522 lung) was 4.94 µM and the TGI (NCI-H522 lung) was 21.6 µM. It also gave a GI50 (SNB-19 CNS) of 14.6 µM, a TGI (SNB-19 CNS) of 29.7 µM and a GI50 (BT-549 breast) of 3.4 µM. For the same compound, the TGI (BT-549 breast) was 14 µM, the GI50 (M14 melanoma) was 4.9 µM and the TGI (M14 melanoma) was 18.3 µM. For the same compound, the GI50 (SF-295 CNS) was 7.2 µM, the TGI (SF-295 CNS) was 22 µM and the GI50 (OVCAR-8 ovarian) was 5.91 µM. For the same compound, the TGI (OVCAR-8 ovarian) was 22.3 µM, the GI50 (SW-620 colon) was 3.58 µM and the TGI (SW-620 colon) was 15.8 µM. The GI50 (IGROV1 ovarian) was 15.1 µM, the TGI (IGROV1 ovarian) was 31.3 µM and the GI50 (TK-10 renal) was 24.8 µM. It also gave a TGI (TK-10 renal) of 66.9 µM, a GI50 (OVCAR-3 ovarian) of 5.78 µM and a TGI (OVCAR-3 ovarian) of 19.1 µM. The GI50 (COLO 205 colon) was 23 µM, the TGI (COLO 205 colon) was > 100 µM and the GI50 (HCT-15 colon) was 6.16 µM. The TGI (HCT-15 colon) was 23.9 µM, the GI50 (SF-268 CNS) was 4.14 µM and the TGI (SF-268 CNS) was 20 µM. For the same compound, the GI50 (DU-145 prostate) was 4.62 µM, the TGI (DU-145 prostate) was 17.4 µM and the GI50 (OVCAR-4 ovarian) was 9.74 µM. For the same compound, the TGI (OVCAR-4 ovarian) was 22.2 µM, the GI50 (NCI-H23 lung) was 7.12 µM and the TGI (NCI-H23 lung) was 23.2 µM. It also gave a GI50 (U251 CNS) of 15.4 µM, a TGI (U251 CNS) of 30.8 µM and a GI50 (NCI-H226 lung) of 2.5 µM. The TGI (NCI-H226 lung) was 9.38 µM, the GI50 (UACC-62 melanoma) was 11.4 µM and the TGI (UACC-62 melanoma) was 23.9 µM. The GI50 (SK-MEL-5 melanoma) was 12.6 µM, the TGI (SK-MEL-5 melanoma) was 26.7 µM and the GI50 (RPMI-8226 leukemia) was 8.39 µM. It also gave a TGI (RPMI-8226 leukemia) of 80.3 µM, a GI50 (SK-MEL-2 melanoma) of 15.9 µM and a TGI (SK-MEL-2 melanoma) of 35.3 µM. For the same compound, the GI50 (CAKI-1 renal) was 3.51 µM, the TGI (CAKI-1 renal) was 13.2 µM and the GI50 (PC-3 prostate) was 3.9 µM. The TGI (PC-3 prostate) was 16.7 µM, the GI50 (CCRF-CEM leukemia) was 5.58 µM and the TGI (CCRF-CEM leukemia) was 33.1 µM. For the same compound, the GI50 (RXF 393 renal) was 4.41 µM, the TGI (RXF 393 renal) was 16.7 µM and the GI50 (EKVX NSCLC) was 10.8 µM. It also gave a TGI (EKVX NSCLC) of 28.1 µM, a GI50 (MALME-3M melanoma) of 3.37 µM and a TGI (MALME-3M melanoma) of 13.2 µM. For the same compound, the GI50 (ACHN renal) was 5.05 µM, the TGI (ACHN renal) was 17.9 µM and the GI50 (UACC-257 melanoma) was 9.3 µM. The TGI (UACC-257 melanoma) was 26.9 µM, the GI50 (HOP-92 NSCLC) was 5.06 µM and the TGI (HOP-92 NSCLC) was 21.5 µM. It also gave a GI50 (SK-OV-3 ovarian) of 18.4 µM, a TGI (SK-OV-3 ovarian) of 43.7 µM and a GI50 (HL-60(TB) leukemia) of 11.1 µM. For the same compound, the TGI (HL-60(TB) leukemia) was > 100 µM, the GI50 (T-47D breast) was 9.84 µM and the TGI (T-47D breast) was 44.1 µM. For the same compound, the GI50 (HT29 colon) was 6.62 µM, the TGI (HT29 colon) was 30 µM and the GI50 (SF-539 CNS) was 5.26 µM. For the same compound, the TGI (SF-539 CNS) was 17.9 µM.

Reference: PubChem BioAssay (NCI)
